Laboratory results: paper PMC5507300, “Antibacterial small molecules targeting the conserved TOPRIM domain of DNA gyrase” (PLoS ONE, 2017)
pIC50: −log10 of the molar value.

Experiments:
Format in all cases: biochemical
[1] = biological target: T1, E. coli DNA gyrase GyrB (F513L) (Escherichia coli, UniProt P0AES6, F513L); assay: Gel supercoiling assay, reconstituted GyrB (F513L) gyrase
T1 construct: His6 tag followed by TEV site (X1: […]) (N, cleaved yes); made in house; host or cells: E. coli BL21(DE3) RIL
Description: Conditions to measure the supercoiling of a relaxed, closed-circular plasmid substrate and cleavage complex stabilization in agarose gels were adapted from the literature and carried out as described below. Plasmid supercoiling reactions were assembled by combining 0.4 μL compound (in 100% DMSO), 12.5 μL H2O, 4 μL 5Xbuffer, 0.4 μL relaxed pUC19 DNA substrate (0.5 μg), […] dilute DNA gyrase (buffer, substrate, and enzyme from New England Biolabs, Beverly, MA). Alternatively the substrate pHOT-1 (TopoGEN, Buena Vista, CO) was used as noted (the substrate from New England Biolabs has been discontinued). P. aeruginosa DNA gyrase was supplied by Inspiralis, Norwich, UK. […] The gel was illuminated with UV light, photographed, and DNA quantitated with an Alpha Imager and accompanying software (ProteinSimple, San Jose, CA). […]
The E. coli gyrA and gyrB (wild-type and t1537c (F513L)) genes with a N-terminal His6 tag sequence followed by Tobacco Etch Virus (TEV) cleavage site ([…]) were cloned into pET28(+) vector (EMD Millipore). […] Fractions containing gyrase subunit protein (as monitored by sodium dodecyl sulfate polyacrylamide gel electrophoresis (SDS-PAGE)) were pooled and loaded onto a Q-Sepharose column (GE Healthcare, Princeton, NJ, USA) equilibrated in 20 mM Tris-HCl (pH = 7.9), 25mM NaCl, 10% glycerol, and 2 mM β-mercaptoethanol. […]

[2] = biological target: T2, P. aeruginosa DNA gyrase (Pseudomonas aeruginosa, UniProt Q9I7C2); assay: Agarose gel DNA gyrase supercoiling assay, P. aeruginosa; settings: gel-based assay, Fig 3B
T2 construct: purchased Inspiralis, Norwich, UK
Description: Conditions to measure the supercoiling of a relaxed, closed-circular plasmid substrate and cleavage complex stabilization in agarose gels were adapted from the literature and carried out as described below. Plasmid supercoiling reactions were assembled by combining 0.4 μL compound (in 100% DMSO), 12.5 μL H2O, 4 μL 5Xbuffer, 0.4 μL relaxed pUC19 DNA substrate (0.5 μg), […] dilute DNA gyrase (buffer, substrate, and enzyme from New England Biolabs, Beverly, MA). Alternatively the substrate pHOT-1 (TopoGEN, Buena Vista, CO) was used as noted (the substrate from New England Biolabs has been discontinued). P. aeruginosa DNA gyrase was supplied by Inspiralis, Norwich, UK. Reactions were allowed to proceed for 30 min. at 37°C after which 5 μL of stop buffer (5% sarkosyl, 25% glycerol, 1X Blue Juice [Invitrogen, Carlsbad, CA]) were added. Reactions were then extracted with 20 μL chloroform/isoamylOH (24:1) and a portion of the aqueous phase was loaded into a well in a 1% agarose/Tris-borate EDTA gel. Electrophoresis was conducted at 35 VDC until the loading dye migrated about 6.5 cm down the gel. DNA in the gel was then stained in 0.5 μg/mL ethidium bromide in water for 30 min. and rinsed (3X) in H2O. The gel was illuminated with UV light, photographed, and DNA quantitated with an Alpha Imager and accompanying software (ProteinSimple, San Jose, CA). […]

[3] = biological target: T3, E. coli topoisomerase IV (Escherichia coli, UniProt P20083); assay: E. coli topoisomerase IV decatenation reaction; settings: maximum achievable concentration (200 μM), kDNA decatenation
T3 construct: purchased TopoGEN, Inc
T3 sequence (P20083 whole entry): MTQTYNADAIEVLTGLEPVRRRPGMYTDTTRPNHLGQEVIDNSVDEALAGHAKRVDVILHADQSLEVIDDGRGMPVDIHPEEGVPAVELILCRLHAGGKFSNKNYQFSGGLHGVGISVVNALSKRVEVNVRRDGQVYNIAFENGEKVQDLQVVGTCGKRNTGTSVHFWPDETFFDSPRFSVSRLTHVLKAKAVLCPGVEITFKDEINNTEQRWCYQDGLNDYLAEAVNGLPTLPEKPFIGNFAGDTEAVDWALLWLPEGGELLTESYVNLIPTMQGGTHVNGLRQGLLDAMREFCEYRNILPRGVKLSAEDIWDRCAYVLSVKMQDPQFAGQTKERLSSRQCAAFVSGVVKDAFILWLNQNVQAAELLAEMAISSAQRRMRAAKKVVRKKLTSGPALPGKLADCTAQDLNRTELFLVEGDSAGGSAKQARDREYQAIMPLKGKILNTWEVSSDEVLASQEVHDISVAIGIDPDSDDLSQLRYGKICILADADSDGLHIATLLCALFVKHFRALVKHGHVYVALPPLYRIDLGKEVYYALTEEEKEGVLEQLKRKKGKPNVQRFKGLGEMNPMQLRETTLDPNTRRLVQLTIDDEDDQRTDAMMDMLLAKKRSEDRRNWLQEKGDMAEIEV
T3 sequence (P0AFI2 whole entry, further chain): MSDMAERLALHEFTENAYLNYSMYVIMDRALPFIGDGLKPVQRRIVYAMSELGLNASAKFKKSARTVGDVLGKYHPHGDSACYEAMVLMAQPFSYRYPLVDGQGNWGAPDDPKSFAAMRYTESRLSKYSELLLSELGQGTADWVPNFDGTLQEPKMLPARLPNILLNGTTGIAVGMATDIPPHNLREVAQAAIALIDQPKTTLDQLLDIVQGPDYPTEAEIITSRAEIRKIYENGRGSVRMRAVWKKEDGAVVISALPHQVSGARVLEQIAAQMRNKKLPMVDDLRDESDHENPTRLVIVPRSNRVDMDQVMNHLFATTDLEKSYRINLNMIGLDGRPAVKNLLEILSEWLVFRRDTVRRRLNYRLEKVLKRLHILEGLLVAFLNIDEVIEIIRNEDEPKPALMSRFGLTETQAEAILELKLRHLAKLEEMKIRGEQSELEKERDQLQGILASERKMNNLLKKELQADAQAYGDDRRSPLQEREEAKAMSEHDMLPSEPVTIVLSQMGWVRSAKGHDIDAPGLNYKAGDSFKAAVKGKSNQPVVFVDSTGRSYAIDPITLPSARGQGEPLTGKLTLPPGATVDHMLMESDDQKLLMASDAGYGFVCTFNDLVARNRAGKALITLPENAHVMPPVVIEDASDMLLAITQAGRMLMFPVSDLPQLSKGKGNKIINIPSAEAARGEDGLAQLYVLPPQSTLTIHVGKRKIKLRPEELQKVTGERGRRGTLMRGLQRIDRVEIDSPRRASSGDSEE

T2 sequence (Q9I7C2 whole entry): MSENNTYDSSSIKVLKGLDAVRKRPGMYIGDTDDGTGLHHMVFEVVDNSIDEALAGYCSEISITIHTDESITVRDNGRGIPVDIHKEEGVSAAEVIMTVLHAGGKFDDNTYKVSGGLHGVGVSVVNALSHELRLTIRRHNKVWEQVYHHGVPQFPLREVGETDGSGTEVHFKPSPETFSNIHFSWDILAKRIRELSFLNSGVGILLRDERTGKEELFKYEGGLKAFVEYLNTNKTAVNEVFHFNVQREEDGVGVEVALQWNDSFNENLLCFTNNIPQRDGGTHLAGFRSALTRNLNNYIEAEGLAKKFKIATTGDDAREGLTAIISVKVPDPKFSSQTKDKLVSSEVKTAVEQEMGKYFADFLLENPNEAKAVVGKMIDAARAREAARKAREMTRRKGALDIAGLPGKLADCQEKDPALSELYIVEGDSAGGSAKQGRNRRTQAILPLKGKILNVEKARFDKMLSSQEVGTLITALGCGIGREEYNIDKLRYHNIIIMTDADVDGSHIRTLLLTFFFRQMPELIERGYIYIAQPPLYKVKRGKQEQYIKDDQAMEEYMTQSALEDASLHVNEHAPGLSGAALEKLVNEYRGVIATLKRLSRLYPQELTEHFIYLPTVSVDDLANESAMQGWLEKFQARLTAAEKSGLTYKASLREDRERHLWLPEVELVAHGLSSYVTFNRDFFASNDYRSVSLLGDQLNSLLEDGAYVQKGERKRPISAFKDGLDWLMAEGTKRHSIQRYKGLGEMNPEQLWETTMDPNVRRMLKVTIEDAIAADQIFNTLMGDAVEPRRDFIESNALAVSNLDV
T2 sequence (P48372 whole entry, further chain): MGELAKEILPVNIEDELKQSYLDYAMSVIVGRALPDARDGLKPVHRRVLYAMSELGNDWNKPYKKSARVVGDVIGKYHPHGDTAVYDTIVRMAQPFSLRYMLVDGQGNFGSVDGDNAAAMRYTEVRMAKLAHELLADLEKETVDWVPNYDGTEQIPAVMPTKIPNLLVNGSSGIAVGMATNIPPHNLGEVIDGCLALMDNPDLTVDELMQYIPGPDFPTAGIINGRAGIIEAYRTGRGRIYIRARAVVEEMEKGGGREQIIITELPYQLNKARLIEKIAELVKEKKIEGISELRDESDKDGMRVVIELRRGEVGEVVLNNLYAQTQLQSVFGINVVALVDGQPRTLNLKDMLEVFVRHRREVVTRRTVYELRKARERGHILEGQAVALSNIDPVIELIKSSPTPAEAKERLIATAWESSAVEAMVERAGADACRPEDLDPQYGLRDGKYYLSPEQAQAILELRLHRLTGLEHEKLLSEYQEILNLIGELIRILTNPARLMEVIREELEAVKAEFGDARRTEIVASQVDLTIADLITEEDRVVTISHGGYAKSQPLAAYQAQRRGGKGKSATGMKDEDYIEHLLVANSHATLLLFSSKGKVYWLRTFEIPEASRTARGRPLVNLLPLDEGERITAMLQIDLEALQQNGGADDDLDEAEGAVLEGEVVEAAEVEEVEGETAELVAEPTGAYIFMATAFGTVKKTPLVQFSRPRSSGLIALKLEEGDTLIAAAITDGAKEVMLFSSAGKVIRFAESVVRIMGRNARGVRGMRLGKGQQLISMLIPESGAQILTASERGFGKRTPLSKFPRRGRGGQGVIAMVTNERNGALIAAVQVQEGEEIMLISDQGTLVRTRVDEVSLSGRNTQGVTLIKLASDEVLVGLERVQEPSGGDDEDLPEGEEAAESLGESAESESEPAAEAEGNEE

## Cn1ncc2cc(-c3nnnn3C3CCN(C(=O)Nc4ccc(Cl)c(Cl)c4)CC3)ccc21 [MRL-1082]
[1]
  pIC50: < 3.70
[2]
  activity against P. aeruginosa DNA gyrase: active
[3]
  activity against E. coli topoisomerase IV: does not inhibit
